Assay results taken from patent publication US8802597B2, “Herbicidal pyrimidines” (E I du Pont de Nemours and Company, priority 2003, dated 2014).

Assays:
Type in all cases: in vivo
[1] = system: wheat (Triticum aestivum); assay: Test B pre/postemergence
How it was run: (§1)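 Visual injury scored 0 (no effect) to 100 (complete control) versus untreated controls after 13 to 15 days in greenhouse. Treatments were pre- or postemergence sprays of surfactant-containing solvent formulations; postemergence plants at 1- to 4-leaf stage, 2 to 18 cm.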

[2] = system: giant foxtail (Setaria faberii); assay: Test B pre/postemergence
How it was run: as §1

[3] = system: lambsquarters (Chenopodium album); assay: Test B pre/postemergence
How it was run: as §1

[4] = system: velvetleaf (Abutilon theophrasti); assay: Test B pre/postemergence
How it was run: as §1

[5] = system: Surinam grass (Brachiaria decumbens); assay: Test B pre/postemergence
How it was run: as §1

[6] = system: pigweed (Amaranthus retroflexus); assay: Test B pre/postemergence
How it was run: as §1

[7] = system: crabgrass (Digitaria sanguinalis); assay: Test B pre/postemergence
How it was run: as §1

[8] = system: barnyardgrass (Echinochloa crus-galli); assay: Test B pre/postemergence
How it was run: as §1

[9] = system: morningglory (Ipomoea coccinea); assay: Test B pre/postemergence
How it was run: as §1

corn (Zea mays) = assay: Test B pre/postemergence
How it was run: as §1

[10] = system: cocklebur (Xanthium strumarium); assay: Test B pre/postemergence
How it was run: as §1

[11] = system: duck salad (Heteranthera limosa); assay: Test B flooded paddy test; settings: Flood, 1000 g ai/ha; scale 0 to 100
How it was run: (§2)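 Visual injury scoring (0 = no effect, 100 = complete control) versus controls made 13 to 15 days after treatment in the greenhouse. Test species were grown in flooded paddy to the 2-leaf stage: rice, barnyardgrass, umbrella sedge, duck salad.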

[12] = system: barnyardgrass (Echinochloa crus-galli); assay: Test B flooded paddy test; settings: Flood, 1000 g ai/ha; scale 0 (no effect) to 100 (complete control)
How it was run: as §2

rice (Oryza sativa) = assay: Test B flooded paddy test; settings: Flood, 1000 g ai/ha; scale 0 to 100
How it was run: as §2

[13] = system: umbrella sedge (Cyperus difformis); assay: Test B flooded paddy test; settings: Flood, 1000 g ai/ha; scale 0 to 100
How it was run: as §2

wild oat (Avena fatua) = assay: Test B postemergence; settings: for Oat, Wild plant response rating: 125 g ai/ha, scale 0 to 100 (0 no effect, 100 complete control); for Plant response rating, Oat, Wild: 500 g ai/ha, scale 0 to 100
How it was run: as §1

[14] = system: blackgrass (Alopecurus myosuroides); assay: Test B postemergence; settings: for Blackgrass plant response rating: 125 g ai/ha, scale 0 to 100 (0 no effect, 100 complete control); for Plant response rating, Blackgrass: 500 g ai/ha, scale 0 to 100
How it was run: as §1

[15] = Postemergence, 125 g ai/ha, scale 0 to 100 (0 no effect, 100 complete control)
[16] = Postemergence, 500 g ai/ha, scale 0 to 100
[17] = Preemergence, 125 g ai/ha, scale 0 to 100 (0 no effect, 100 complete control)
[18] = Preemergence, 500 g ai/ha, scale 0 to 100 (0 no effect, 100 complete control)

Nc1nc(C2CC2)nc(C=NO)c1Br [Compound 27]
60: Velvetleaf plant response rating [4, 15] | Pigweed plant response rating [6, 15] | Barnyardgrass plant response rating [8, 18] | Plant response rating, Ducksalad [11] | Plant response rating, Sedge, Umbrella [13]
40: Foxtail, Giant plant response rating [2, 18]
30: Plant response rating, Wheat [1, 16] | Plant response rating, Foxtail, Giant [2, 16] | Plant response rating, Crabgrass [7, 17] | Plant response rating, Barnyardgrass [8, 17] | Plant response rating, Oat, Wild (wild oat (Avena fatua)) | Blackgrass plant response rating [14] | Plant response rating, Blackgrass [14]
80: Lambsquarters plant response rating [3, 15] | Plant response rating, Velvetleaf [4, 17] | Plant response rating, Morningglory [9, 17] | Plant response rating, Cocklebur [10, 17]
10: Plant response rating, Wheat [1, 17] | Crabgrass plant response rating [7, 15] | Plant response rating, Crabgrass [7, 16] | Plant response rating, Corn (corn (Zea mays); [17])
100: Lambsquarters plant response rating [3, 18] | Pigweed plant response rating [6, 18] | Cocklebur plant response rating [10, 15] | Plant response rating, Cocklebur [10, 16]
90: Plant response rating, Lambsquarters [3, 16] | Plant response rating, Lambsquarters [3, 17] | Velvetleaf plant response rating [4, 18] | Plant response rating, Pigweed [6, 17] | Plant response rating, Morningglory [9, 16] | Morningglory plant response rating [9, 18] | Cocklebur plant response rating [10, 18]
50: Wheat plant response rating [1, 18] | Corn plant response rating (corn (Zea mays); [18])
20: Wheat plant response rating [1, 15] | Foxtail, Giant plant response rating [2, 15] | Plant response rating, Corn (corn (Zea mays); [16]) | Plant response rating, Rice (rice (Oryza sativa)) | Oat, Wild plant response rating (wild oat (Avena fatua))
70: Plant response rating, Velvetleaf [4, 16] | Surinam Grass plant response rating [5, 18] | Plant response rating, Pigweed [6, 16] | Crabgrass plant response rating [7, 18] | Morningglory plant response rating [9, 15]
0: Plant response rating, Foxtail, Giant [2, 17] | Surinam Grass plant response rating [5, 15] | Plant response rating, Surinam Grass [5, 16] | Plant response rating, Surinam Grass [5, 17] | Barnyardgrass plant response rating [8, 15] | Plant response rating, Barnyardgrass [8, 16] | Corn plant response rating (corn (Zea mays); [15]) | Plant response rating, Barnyardgrass [12]

CCOC(=O)C(Cl)(Cl)c1nc(C2CC2)nc(N)c1Br [Compound 34]
80: Lambsquarters plant response rating [3, 18] | Plant response rating, Pigweed [6, 16] | Pigweed plant response rating [6, 18] | Cocklebur plant response rating [10, 15] | Plant response rating, Cocklebur [10, 16]
90: Plant response rating, Lambsquarters [3, 16]
50: Plant response rating, Foxtail, Giant [2, 16] | Plant response rating, Lambsquarters [3, 17] | Plant response rating, Surinam Grass [5, 16] | Surinam Grass plant response rating [5, 18] | Pigweed plant response rating [6, 15]
0: Plant response rating, Wheat [1, 17] | Plant response rating, Foxtail, Giant [2, 17] | Crabgrass plant response rating [7, 15] | Plant response rating, Crabgrass [7, 17] | Barnyardgrass plant response rating [8, 15] | Plant response rating, Barnyardgrass [8, 17] | Barnyardgrass plant response rating [8, 18] | Corn plant response rating (corn (Zea mays); [15]) | Plant response rating, Corn (corn (Zea mays); [16]) | Plant response rating, Corn (corn (Zea mays); [17]) | Corn plant response rating (corn (Zea mays); [18]) | Plant response rating, Ducksalad [11] | Plant response rating, Barnyardgrass [12] | Plant response rating, Rice (rice (Oryza sativa)) | Plant response rating, Sedge, Umbrella [13]
10: Plant response rating, Wheat [1, 18] | Surinam Grass plant response rating [5, 15] | Plant response rating, Surinam Grass [5, 17]
60: Plant response rating, Velvetleaf [4, 16] | Velvetleaf plant response rating [4, 18] | Plant response rating, Barnyardgrass [8, 16] | Morningglory plant response rating [9, 15] | Cocklebur plant response rating [10, 18] | Blackgrass plant response rating [14]
20: Foxtail, Giant plant response rating [2, 15] | Foxtail, Giant plant response rating [2, 18] | Plant response rating, Morningglory [9, 17]
30: Wheat plant response rating [1, 15] | Velvetleaf plant response rating [4, 15] | Plant response rating, Velvetleaf [4, 17] | Plant response rating, Crabgrass [7, 16] | Plant response rating, Cocklebur [10, 17] | Oat, Wild plant response rating (wild oat (Avena fatua))
40: Plant response rating, Wheat [1, 16] | Plant response rating, Pigweed [6, 17] | Plant response rating, Oat, Wild (wild oat (Avena fatua))
70: Lambsquarters plant response rating [3, 15] | Crabgrass plant response rating [7, 18] | Plant response rating, Morningglory [9, 16] | Morningglory plant response rating [9, 18] | Plant response rating, Blackgrass [14]
